The values that follow come from paper PMC4147587, “Synthesis and Analgesic Effects of μ-TRTX-Hhn1b on Models of Inflammatory and Neuropathic Pain” (Toxins, 2014).

Like-named read-outs stand apart in the source and are kept apart here. No end group written: not given here.

For one series, the target named is T1, human Nav1.7 (Homo sapiens, UniProt Q15858).
T1 construct: expressed in transfected cells; host or cells: HEK293 cells, transient transfection with Lipofectamine 2000
Description: whole-cell patch clamp, human Nav1.7 transiently expressed in HEK 293 cells. As to conditions: comparison group printed as "native toxin group". The format is cell-based. The source says: Figure 2 Inhibitory effect of synthetic μ-TRTX-Hhn1b on Nav1.7 expressed on HEK 293 cells. […] (B) The inhibition of μ-TRTX-Hhn1b on Nav1.7 was dose-dependent. […] Data are plotted as a fraction of the maximum conductance. The voltage-dependence of steady-state inactivation was estimated using a standard double-pulse protocol, in which a 20-ms depolarizing test potential of 0 mV followed a 500-ms prepulse at potentials that ranged from −130 to −10 mV with a 10-mV increment. Cells were held at −100 mV.
A human Nav1.7 channel plasmid (accession No. NM_002977) and a plasmid for green ﬂuorescent protein were transiently transfected into human embryonic kidney 293 (HEK293) cells using Lipofectamine 2000 (Invitrogen, Carlsbad, CA, USA) according to the manufacturer’s instructions. HEK293 cells were grown under standard tissue culture conditions (5% CO2; 37 °C) in DMEM supplemented with 10% FBS. The β1 subunit was cotransfected with the Nav1.7 channel to increase the current density. Cells with green ﬂuorescence were selected for whole-cell patch-clamp recording at 36–72 h after transfection. Patch-clamp experiments were performed at room temperature. Suction pipettes (2.0–3.0 MΩ) were made from borosilicate glass capillary tubes using a two-step vertical micropipette puller. The pipette solution contained (in mM): CsCl 145, MgCl2∙6H2O 4, HEPES 10, EGTA 10, glucose 10, ATP 2 (pH 7.2). The external solution contained (in mM): NaCl 145, KCl 2.5, CaCl2 1.5, MgCl2.6H2O 1.2, HEPES 10, glucose 10 (pH 7.4). Experimental data were collected and analyzed using the program Pulse/Pulsefit 8.0 (HEKA Electronics, Pfalz, Germany). Macroscopic sodium currents were filtered at 5 kHz and digitized at 20 kHz with an EPC-9 patch-clamp amplifier (HEKA Electronics, Pfalz, Germany). Series resistance was kept near 5 MΩ and compensated to 65%–70%; linear capacitative and leakage currents were digitally subtracted using the P/4 protocol.
On the technique in general: Patch clamp records ionic current or voltage across a cell membrane.

Series [1] deals with Nav1.2, Nav1.3, Nav1.4, Nav1.5, Nav1.7. As to conditions: native toxin; ref 27 (unpublished work, 2014); cited from earlier work.
Another series concerns Nav1.7. As to conditions: native toxin; ref 27 (unpublished work, 2014); cited from earlier work. An excerpt: μ-TRTX-Hhn1b (HNTX-IV) is a 35-residue peptide from tarantula Ornithoctonus hainana (Haplopelma hainanum) venom. The amino acid sequence is […]. The peptide amidated at its C-terminal has a high proportion of basic residues and is crosslinked by three disulfide bonds.

The test system of series [2] is paroxysmal extreme pain disorder (PEPD). As to conditions: patients; cited from earlier work. An excerpt:
(§1) Voltage-gated sodium channels (VGSCs) are essential for the initiation and propagation of action potentials in excitable tissues, such as nerves and muscles. Considerable in vivo and in vitro studies indicate that VGSCs play a key role in neuropathic and inflammatory pain, which begins with the aberrant firing of action potential bursts in damaged neuronal tissue. Of the nine subtypes of VGSCs identified to date and designated as Nav1.1–1.9, Nav1.3, 1.7, 1.8 and 1.9 play specialized roles in nociceptive pathways and are considered ideal targets for the development of analgesi ...

Series [3] concerns inherited erythromelalgia (IEM). As to conditions: patients; cited from earlier work.
From the text: as §1

In series [4] the test system is formalin-induced pain behaviors in rats. Description: formalin-induced inflammatory rat model. Type of series: in vivo, rat (Sprague-Dawley). As to conditions: rat, in vivo, ip. How it is done: Acute and chronic nociceptive responses were measured using the rat paw formalin test as descried by Dubission and modified by Malmberg. Adult Sprague-Dawley rats (male, weighing 180–220 g) were used for this behavioral test. During the test, each rat was placed into open polyvinyl cages (30 cm × 40 cm × 30 cm) and at least 30 min before administration of the toxin. All agents were administered 30 min prior to s.c. intraplantar formalin injection. A volume of 50 μL formalin (5%) solution was used as previously described and injected into the plantar surface of one hind paw. Lifting, favoring, licking, shaking and flinching of the injected paw were recorded as nociceptive responses. The total time of the nociceptive response was measured every 5 min and […] (mean ± SEM). Recording of nociceptive behavior commenced immediately after formalin injection and was continued for 40 min.

Series [5] concerns motor coordination of rats (latency to fall off the rotarod). Type of series: in vivo, rat (Sprague-Dawley). As to conditions: rat, in vivo. The protocol:
Motor activity was assessed using a rotarod apparatus for rats (Coulbourn Instruments, Lehigh Valley, PA, USA). The rotarod might be set at any speed from 0 to 50 rpm. For motor coordination assessment, rats were trained for 2 days by walking them each day on an accelerating rotarod from 4 to 40 rpm for 10 min. […] Motor performance was considered as the latency to fall off the rotarod apparatus determined from the mean time in three trials for each rat at each time.

Series [6] concerns rat models of neuropathic pain. As to conditions: 37.5 mg/kg i.p., cited from earlier work. The source says:
A total of 30 rats with mechanical allodynia were divided into five groups randomly.

T1 sequence (Q15858 other isoform, or with tags, fused parts or gaps): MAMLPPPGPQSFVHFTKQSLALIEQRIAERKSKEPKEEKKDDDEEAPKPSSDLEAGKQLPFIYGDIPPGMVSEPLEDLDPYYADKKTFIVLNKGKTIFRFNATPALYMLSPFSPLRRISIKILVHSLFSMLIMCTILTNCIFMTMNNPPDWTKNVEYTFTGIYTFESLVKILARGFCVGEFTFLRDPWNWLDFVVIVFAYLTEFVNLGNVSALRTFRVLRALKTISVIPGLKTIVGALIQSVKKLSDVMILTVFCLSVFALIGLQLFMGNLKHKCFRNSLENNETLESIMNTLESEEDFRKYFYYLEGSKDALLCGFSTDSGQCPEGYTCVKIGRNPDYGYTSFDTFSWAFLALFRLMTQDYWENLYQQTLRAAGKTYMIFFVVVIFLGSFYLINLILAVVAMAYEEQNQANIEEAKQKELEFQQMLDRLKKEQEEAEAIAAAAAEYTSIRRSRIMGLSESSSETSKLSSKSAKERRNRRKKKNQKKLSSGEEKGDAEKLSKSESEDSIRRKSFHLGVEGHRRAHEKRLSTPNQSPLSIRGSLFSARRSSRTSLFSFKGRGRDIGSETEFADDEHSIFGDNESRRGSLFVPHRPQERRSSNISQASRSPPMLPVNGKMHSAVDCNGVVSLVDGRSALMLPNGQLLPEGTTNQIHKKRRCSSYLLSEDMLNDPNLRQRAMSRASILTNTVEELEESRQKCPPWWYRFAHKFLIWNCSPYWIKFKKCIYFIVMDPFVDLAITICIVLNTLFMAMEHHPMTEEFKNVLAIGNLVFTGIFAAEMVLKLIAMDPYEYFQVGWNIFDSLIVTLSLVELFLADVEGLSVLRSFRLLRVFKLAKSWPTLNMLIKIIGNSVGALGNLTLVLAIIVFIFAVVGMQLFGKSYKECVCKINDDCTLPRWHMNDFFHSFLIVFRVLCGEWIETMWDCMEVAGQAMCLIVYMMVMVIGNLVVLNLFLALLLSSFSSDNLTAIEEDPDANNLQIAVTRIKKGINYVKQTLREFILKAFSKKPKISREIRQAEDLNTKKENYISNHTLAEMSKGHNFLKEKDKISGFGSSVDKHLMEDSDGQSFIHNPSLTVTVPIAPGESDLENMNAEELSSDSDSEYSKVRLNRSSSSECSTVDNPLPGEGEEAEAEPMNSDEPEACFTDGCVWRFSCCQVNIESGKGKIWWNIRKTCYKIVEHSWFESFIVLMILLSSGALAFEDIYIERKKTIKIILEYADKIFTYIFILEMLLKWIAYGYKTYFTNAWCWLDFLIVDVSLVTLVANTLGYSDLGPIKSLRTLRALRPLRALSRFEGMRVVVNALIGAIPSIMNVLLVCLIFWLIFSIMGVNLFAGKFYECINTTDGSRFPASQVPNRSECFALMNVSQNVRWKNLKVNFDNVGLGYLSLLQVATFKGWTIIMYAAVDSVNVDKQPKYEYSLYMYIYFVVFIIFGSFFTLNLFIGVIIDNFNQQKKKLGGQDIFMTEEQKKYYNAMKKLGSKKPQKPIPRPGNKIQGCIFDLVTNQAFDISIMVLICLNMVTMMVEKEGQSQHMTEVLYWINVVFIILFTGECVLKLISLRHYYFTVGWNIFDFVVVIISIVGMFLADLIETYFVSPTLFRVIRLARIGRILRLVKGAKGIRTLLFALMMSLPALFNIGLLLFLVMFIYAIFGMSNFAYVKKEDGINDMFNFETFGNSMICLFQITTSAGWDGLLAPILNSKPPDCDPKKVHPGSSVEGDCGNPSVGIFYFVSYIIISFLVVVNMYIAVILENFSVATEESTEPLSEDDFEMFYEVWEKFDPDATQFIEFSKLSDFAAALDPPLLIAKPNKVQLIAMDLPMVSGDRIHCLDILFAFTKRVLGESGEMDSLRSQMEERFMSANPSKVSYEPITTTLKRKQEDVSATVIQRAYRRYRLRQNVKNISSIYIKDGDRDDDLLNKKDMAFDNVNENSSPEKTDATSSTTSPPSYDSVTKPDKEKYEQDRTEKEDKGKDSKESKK
T1 sequence (Q07699 19-218, further chain): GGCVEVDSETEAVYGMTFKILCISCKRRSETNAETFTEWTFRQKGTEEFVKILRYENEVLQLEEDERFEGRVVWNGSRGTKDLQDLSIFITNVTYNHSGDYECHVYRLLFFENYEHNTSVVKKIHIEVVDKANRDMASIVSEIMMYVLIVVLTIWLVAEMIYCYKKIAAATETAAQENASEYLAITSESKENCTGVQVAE

Consider “ECLGFGKGCNPSNDQCCKSSNLVCSRKHRWCKYEI (disulfide (positions not given here)) [native μ-TRTX-Hhn1b, reference compound]”, for which, at human Nav1.7, the “half-activation voltage of Nav1.7” value was −20.5 ± 0.2 mV and the “half-inactivation voltage of Nav1.7” value is listed as −42.6 ± 0.2 mV. In series [1], the subtype preference entry is “preferentially inhibited Nav1.2, Nav1.3 and Nav1.7 compared with Nav1.4 and Nav1.5; Nav1.7 was the most sensitive channel”. Besides, in the series on Nav1.7, the IC50 is about 21 nM.
Turning to `NC(=O)N1c2ccccc2C=Cc2ccccc21` [carbamazepine], the “control of PEPD” value in series [2] is reported as “well controlled”.
On to `CCN(CC)CC(=O)Nc1c(C)cccc1C` [lidocaine], for which the “treatment of IEM” value in series [3] is given as “very ineffective”.
On to `CN1CC[C@]23c4c5ccc(O)c4O[C@H]2[C@@H](O)C=C[C@H]3[C@H]1C5` [morphine, reference compound], for which the pain score in series [4] was 225.0 ± 55.8 s.
For `Cc1cccc(C)c1OCC(C)N` (centres unmarked) [mexiletine], the “treatment of IEM” value in series [3] is listed as “very ineffective”. For the same compound, the “latency to fall off the rotarod” value in series [5] is on record as “significant latency reduction”. The “withdrawal threshold to von Frey hair” value in series [6] (15 min after injection) was “significantly increased the withdrawal threshold”; in series [6] (45 min after injection), “returned to a level non-significantly different from the baseline and vehicle”.

Usually IC50 stands for the midpoint of a concentration-inhibition curve.
